Data taken from patent US6693118B2, “Use of 4-substituted tetrahydropyridines for the manufacture of medicaments acting upon TGF-β1” (Sanofi-Synthelabo, priority 1997, dated 2004).

Tests used:
Type in all cases: cell-based
[1] = test system: smooth muscle cells isolated from the human aorta; assay: Anti-apoptotic effect, apoptosis induced by NGF (oligonucleosome ELISA); conditions: NGF 0.01 ng/ml to 100 ng/ml; after 24 hours of contact with the cells
Description: (§1) The anti-apoptotic activity was measured on the same cells vis-à-vis the pro-apoptotic activity of a deprivation in serum or after the addition of toxic compounds such as vincristine or growth factors such as nerve growth factor (NGF) with the aid of a specific ELISA (enzyme-linked immunosorbent assay) determination kit which detects the presence of oligonucleosomes the presence of which inside the cells is a specific marker of programmed cell death (apoptosis), according to the method described by Del Bino G. et al., (Experimental Cell Research, 193, 27, 1991 and 195, 485, 1991) or Darzynkiewicz A et al., (Cytometry, 13, 795, 1992).
(§2) 40,000 smooth muscle cells isolated from the human aorta (supplier: CLONETICS) are placed, in a […], in a medium containing 2 ml of DMEM (Dulbecco Modified Eagle Medium containing 4.5 g/l of glucose, 3.7 g/l of NaHCO3 and not containing any L-glutamine or Na-pyruvate). 20% v/v of foetal calf serum which was desupplemented for 30 min at […] , 4 mM L-glutamine, 50 U/ml of penicillin and 50 μg/ml of streptomycin are added. The cells are left in this medium for a growth period of three days before submitting them to tests according to the examples given further on.
(§3) Dishes containing the cells are prepared as in PREPARATION 1. Apoptosis is induced by three different methods:
b) by adding increasing doses of NGF (0.01 ng/ml to 100 ng/ml) to the medium described in PREPARATION 1;
(§4) By an ELISA determination test of the mono- and oligo-nucleosomes associated with cytoplasmic histones after washing and cellular lysis, the effects of the compounds of the invention upon the apoptosis are measured after 24 hours of contact with the cells in comparison with the levels of apoptosis obtained in the absence of products (maximum apoptosis level) or in the presence of 20% foetal calf serum (minimum apoptosis level).
Dishes containing cells are prepared as in PREPARATION 1. Apoptosis is induced according to method b) of PREPARATION 4. The apoptosis levels are measured after 24 hours of contact with the cells by the method described in PREPARATION 4; the same controls as in PREPARATION 4 are used.

[2] = test system: smooth muscle cells isolated from the human aorta; assay: Anti-apoptotic effect, apoptosis induced by vincristine (oligonucleosome ELISA); conditions: Vincristin 0.1 pg/ml to 10 ng/ml; after 24 hours of contact with the cells
Description: as §1, §2, §3
c) by adding increasing doses of Vincristin (0.1 pg/ml to 10 ng/ml) to the medium described in PREPARATION 1.
as §4
Dishes containing cells are prepared as described in PREPARATION 1. Apoptosis is induced according to method c) of PREPARATION 4. The levels of apoptosis are measured after 24 hours of contact with the cells by the method described in PREPARATION 4; the same controls as in PREPARATION 4 are used.

TGF-β1 = assay: Levels of latent and activated TGF-β1 in extracellular media of smooth muscle cell cultures (ELISA); conditions: human aortic smooth muscle cells, 0.2% foetal calf serum; after 14 hours of contact with the cells
Description: The effect of the compounds of formula (I) upon the increase of the levels of TGF-β1 was evaluated with the aid of tests upon the smooth muscle cells, as well as upon the blood levels and the diaphragms in the rat after administration of the representative compounds of the invention.
Both latent TGF-β1 and activated TGF-β1 were determined on the smooth muscle cells by incubation with hydrochloric acid.
40,000 smooth muscle cells isolated from the human aorta (supplier: CLONETICS) are placed, in a […], in a medium containing 2 ml of DMEM (Dulbecco Modified Eagle Medium containing 4.5 g/l of glucose, 3.7 g/l of NaHCO3 and not containing any L-glutamine or Na-pyruvate). […]
Dishes containing cells are prepared as described in Preparation 1. […] The activated TGF-β1 is determined directly in the supernatants of the culture, but the latent TGF-β1 is determined after activation. […]
Dishes containing cells are prepared as in PREPARATION 1. The levels of TGF-β1 are measured as described in PREPARATION 2. The levels of activated TGF-β1 are measured in the extracellular media in the presence of SR 57746A after 1, 3, 14, 24 and 48 hours and 7 days of contact with the cells, in comparison with the controls (0.2% foetal calf serum and 20% foetal calf serum) by the method described in PREPARATION 2.

Row | Structure (SMILES) | pro-apoptotic effect of NGF [1] | pro-apoptotic effect of vincristine [2] | levels of activated TGF-β1 in the extracellular media (TGF-β1)
1 | FC(F)(F)c1ccccc1C1=CCN(CCc2ccc(-c3ccccc3)cc2)CC1 [compound F, 1-[2-(biphenyl-4-yl)ethyl]-4-(2-trifluoromethylphenyl)-1,2,3,6-tetrahydropyridine] | significantly inhibit | significantly inhibit | 
2 | FC(F)(F)c1cccc(C2=CCN(CCc3ccc(-c4ccccc4)cc3)CC2)c1 [compound C, 1-[2-(biphenyl-4-yl)ethyl]-4-(3-trifluoromethylphenyl)-1,2,3,6-tetrahydropyridine] | significantly inhibit | significantly inhibit | 
3 | FC(F)(F)c1cccc(C2=CCN(CCc3ccc(C4=CCCCC4)cc3)CC2)c1 [compound E, 1-[2-(4-cyclohexenylphenyl)ethyl]-4-(3-trifluoromethylphenyl)-1,2,3,6-tetrahydropyridine] | significantly inhibit | significantly inhibit | 
4 | CCc1ccc(CCN2CC=C(c3cccc(C(F)(F)F)c3)CC2)cc1CC [compound A, 1-[2-(3,4-diethylphenyl)ethyl]-4-(3-trifluoromethylphenyl)-1,2,3,6-tetrahydropyridine] | significantly inhibit | significantly inhibit | 
5 | O=C(CN1CC=C(c2cccc(C(F)(F)F)c2)CC1)c1ccc(-c2ccccc2)cc1 [compound B, 1-[2-(biphenyl-4-yl)-2-oxoethyl]-4-(3-trifluoromethylphenyl)-1,2,3,6-tetrahydropyridine] | significantly inhibit | significantly inhibit | 
6 | FC(F)(F)c1cccc(C2=CCN(CCc3ccc4cc5c(cc4c3)OCO5)CC2)c1 [compound D, 1-[2-(6,7-methylenedioxynaphth-2-yl)ethyl]-4-(3-trifluoromethylphenyl)-1,2,3,6-tetrahydropyridine] | significantly inhibit | significantly inhibit | 
7 | FC(F)(F)c1cccc(C2=CCN(CCc3ccc4ccccc4c3)CC2)c1 [SR 57746, 1-(2-naphth-2-ylethyl)-4-(3-trifluoromethylphenyl)-1,2,3,6-tetrahydropyridine] | significantly inhibit | significantly inhibit | significant increase
